Values joined by “and” are separate entries in the source; they are usually repeats but may differ in a detail not shown here. Identical values can stand only once.
What was measured:
[1] = Average particle size (ζ-Average) and PDI by dynamic light scattering (Zetasizer Nano ZSP); type: physicochemical; conditions: for Particle size (nm), immediately after the preparation: pDNA (eGFP)-loaded LNP
Summary of the method: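 Dynamic light scattering of the particles in PBS(−) gave both the polydispersity index and the ζ-Average mean size.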

[2] = siRNA/mRNA encapsulation rate by Ribogreen reagent (section IV); type: physicochemical; conditions: for % siRNA encapsulation: F7siRNA-loaded LNP, 50:10:38.5:1.5, N/P ratio 6; for % mRNA encapsulation: FlucmRNA-loaded LNP, 50:10:38.5:1.5
Summary of the method: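 Encapsulation % was calculated as (total − surface nucleic acid)/total × 100, with both values measured by RiboGreen fluorescence at 485/528 nm. Total RNA was read on LNPs lysed with 1% Triton X-100 at 1.2 μg/mL, and surface RNA on intact LNPs at 8 μg/mL in TE buffer. Concentrations came from a 0-2.5 μg/mL Triton-containing calibration curve.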

liver = assay: In vivo Fluc activity of FlucmRNA-loaded LNP by in vivo imaging, liver; conditions: Balb/c mice, 6 hours; for Fluc Activity in liver: FlucmRNA-loaded LNP i.v. 0.1 mg mRNA/kg
Summary of the method: (§1)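 Read-out is average radiance (p/s/cm2/sr, about 560 nm) from whole-animal imaging of liver and spleen 6 h post-dose, after tail-vein luciferin at 1.5 mg/mouse. Dosing was intravenous, 0.1 mg mRNA/kg, in 7-week-old female Balb/c mice.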

spleen = assay: In vivo Fluc activity of FlucmRNA-loaded LNP by in vivo imaging, spleen; conditions: Balb/c mice, 6 hours; for Fluc Activity in spleen: FlucmRNA-loaded LNP i.v. 0.1 mg mRNA/kg
Summary of the method: as §1

F7 [3] = assay: In vivo F7 knockdown, plasma F7 enzyme activity (BIOPHEN FVII), Balb/c mice; conditions: i.v. 0.025 mg siRNA/kg, plasma at 24 hours; for F7 enzyme activity (%): untreated mice as 100%; for F7 enzyme activity (Ratio using MC3 as 1): relative plasma F7 activity of MC3 LNP as 1
Summary of the method: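 Plasma factor VII activity was read 24 h after a single intravenous 0.025 mg siRNA/kg dose of siRNA-loaded lipid nanoparticles in 5-week-old female Balb/c mice. Activity is relative to untreated animals (100%) and normalised to the MC3 nanoparticle benchmark (=1).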

[4] = pDNA encapsulation rate by Picogreen reagent; type: physicochemical; conditions: pDNA (eGFP)-loaded LNP
Procedure: The encapsulation rate of pDNA of the lipid nanoparticles was measured using Picogreen (registered trademark) reagent (Quant-iT™ dsDNA Assay Kit, broad range, manufactured by Thermofisher Scientific). In encapsulation rate measurement of pDNA, the nucleic acid concentration in solution for measuring nanoparticle surface nucleic acid concentration was set at 1.6 μg/mL, the nucleic acid concentration in solution for measuring total nucleic acid concentration […], and the nucleic acid concentration used for calibration curve 0-0.5 μg/mL, and the same method as the method for measuring encapsulation rate of siRNA and mRNA was carried out except that Picogreen (registered trademark) reagent (Quant-iT™ dsDNA Assay Kit, broad range, manufactured by Thermofisher Scientific) was used as measurement reagent. Encapsulation rate %=(nucleic acid concentration in solution for measuring total nucleic acid concentration (μg/mL)−nucleic acid concentration in solution for measuring nanoparticle surface nucleic acid concentration (μg/mL))/(nucleic acid concentration in solution for measuring total nucleic acid concentration (μg/mL))×100. <Results>

[5] = Stability of pDNA-loaded LNP standing at 40° C.; type: physicochemical; conditions: for Quality 40° C. 1 M / Quality 40° C. 1 W: pDNA-loaded LNP; for Particle size (nm), 40° C. 1 M / encapsulation rate (%), 40° C. 1 M: pDNA-loaded LNP after standing at 40° C. 1 M; for Particle size (nm), 40° C. 1 W / encapsulation rate (%), 40° C. 1 W: pDNA-loaded LNP after standing at 40° C. 1 W
Procedure: Prepared lipid nanoparticles were allowed to stand at 40° C., and after keeping for each period, they were evaluated whether quality was well remained according to the following criteria: • Good (O): particle size is within +/−20 nm of the particle size immediately after preparation, and PDI is 0.2 or less, and encapsulation rate is 80% or more; • No good (X): particle size is greater than +/−20 nm of the particle size immediately after preparation, or encapsulation rate is less than 80%.
The lipid nanoparticles which remain in good quality with standing at 40° C. for one week or more can be evaluated as having excellent stability.

[6] = Storage stability of FlucmRNA-loaded LNP at −80, 5, 25 and 40° C.; type: physicochemical; conditions: for period for which quality remained good, −80° C.: maximum storage period 1 week; for period for which quality remained good, 5° C. / period for which quality remained good, 25° C. / period for which quality remained good, 40° C. (weeks): maximum storage period 5 weeks
Summary of the method: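 Reported period is how long all three criteria hold: encapsulation rate at 80% or more, PDI of 0.2 or less, and mean particle size within +/−20 nm of day-of-preparation value. Particle size, PDI and nucleic acid encapsulation were tracked over time at storage temperatures of −80, 5, 25 and 40° C.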

[7] = Average particle size and PDI by dynamic light scattering (Zetasizer Nano ZS); type: physicochemical
Procedure: (§2) The average particle size (number-average value) and PDI in PBS(−) and zeta potential in 10 mM HEPES buffer solution (pH 7.4) of lipid nanoparticles were measured using “Zetasizer Nano ZS ZEN3600”, an analyzer utilizing dynamic light scattering (manufactured by Malvern).

[8] = Zeta potential in 10 mM HEPES buffer (pH 7.4); type: physicochemical
Procedure: as §2

[9] = pKa of lipid nanoparticles by TNS (section II); type: physicochemical; conditions: F7siRNA-loaded LNP; compared with LNP of straight-chain CL4H6 or CL15H6 (FIG. 1)
Procedure: The pKa of lipid nanoparticles was measured using p-toluidino-2-naphthalenesulfonic acid (TNS). First, TNS (final concentration: 0.75 μM) and lipid nanoparticles (final concentration: […]) were mixed in buffer solution adjusted to each pH. The fluorescence intensity of the prepared mixture was measured with a microplate reader. The highest and lowest values among the measured values were taken as 100% and 0% charge rates respectively, and the pH indicating 50% charge rate was calculated as pKa.

[10] = Nucleic acid encapsulation rate by Ribogreen (section II); type: physicochemical; conditions: for % pDNA encapsulation: pFluc-loaded LNP
Procedure: The encapsulation rates of siRNA, mRNA, and pDNA of lipid nanoparticles were measured using Ribogreen (manufactured by life technologies).

F7 [11] = assay: In vivo F7 knockdown, plasma F7 enzyme activity, ICR mice; conditions: i.v. 0.003-0.1 mg siRNA/kg, plasma at 24 hours, compared with LNP of CL4H6 or CL15H6 (FIG. 2)
Procedure: Then, each prepared F7siRNA-loaded lipid nanoparticles were administered to ICR mice (4 weeks old, female) and in vivo F7 knockdown activity was examined.
Specifically, each F7siRNA-loaded lipid nanoparticles were intravenously administered to ICR mice at 0.003-0.1 mg siRNA/kg, and plasma F7 enzyme activity at 24 hours later was measured. Relative plasma F7 enzyme activity (%) of mice administered each F7siRNA-loaded lipid nanoparticles was calculated using plasma F7 enzyme activity of untreated mice as 100%. FIG. 2(B) is the results of intravenous administration of each F7siRNA-loaded lipid nanoparticle at 0.1 mg siRNA/kg.

factor VII (F7) = conditions: mouse liver; lipid as LNP carrier of siRNA; cited from earlier work
[12] = F7siRNA-loaded LNP, 50:10:38.5:1.5, N/P ratio 6
[13] = FlucmRNA-loaded LNP, 50:10:38.5:1.5
[14] = FlucmRNA-loaded LNP, lipid:DSPC:cholesterol:DMG-PEG2K 50:10:38.5:1.5
[15] = 0.1 mg mRNA/kg, versus LNP comprising CL4F6 (Tables 5 and 6)
[16] = NlucmRNA-loaded LNP, 60:10:40:1

Compound | PDI [1, 12] | ζ-Average (nm) [1, 12] | PDI [1, 13] | ζ-Average (nm) [1, 14] | % siRNA encapsulation [2] | % mRNA encapsulation [2] | Fluc Activity in liver (liver) | Fluc Activity in spleen (spleen) | F7 enzyme activity (%) (F7 [3]) | period for which quality remained good, −80° C. [6] | period for which quality remained good, 5° C. [6] | period for which quality remained good, 25° C. [6] | period for which quality remained good, 40° C. (weeks) [6] | ED50 in F7 knockdown (factor VII (F7)) | other results
CCCCCCC(CCCC)C(=O)OCCCCCCC(O)(CCCCCCOC(=O)C(CCCC)CCCCCC)CCCCN(CCC)CCC (stereo not shown) [CL4F 8-4] | 0.006 | 110.00 nm | 0.020 | 101.60 nm | 100.0% | 99.7% | 6.09E+07 Avg Radiance [p/s/cm2/sr] | 1.41E+07 Avg Radiance [p/s/cm2/sr] | 5.6% | 1 week | 5 weeks | 5 weeks | 1 week weeks |  | Particle size (nm), immediately after the preparation ([1]; 50:10:38.5:1.5): 104.7 nm; Fluc activity in the spleen, compared with CL4F6 (spleen; [15]): higher Fluc activity; encapsulation rate (%), immediately after the preparation [4]: 98.0%; Quality 40° C. 1 M [5]: ∘; Quality 40° C. 1 W [5]: ∘; Particle size (nm), 40° C. 1 M [5]: 116.4 nm; encapsulation rate (%), 40° C. 1 M [5]: 98.1%; Particle size (nm), 40° C. 1 W [5]: 109.1 nm; encapsulation rate (%), 40° C. 1 W [5]: 97.8%
CCCCCCCC(CCCCCCC)C(=O)OCCCCCCC(O)(CCCCCCOC(=O)C(CCCCCCC)CCCCCCC)CCCCN(CCC)CCC [CL4F 9-7] | 0.020 | 97.03 nm | 0.004 | 81.30 nm | 99.9% | 99.2% | 1.55E+08 Avg Radiance [p/s/cm2/sr] | 2.43E+06 Avg Radiance [p/s/cm2/sr] | 4.3% | 1 week | 5 weeks | 5 weeks | 5 weeks |  | Particle size (nm), immediately after the preparation ([1]; 50:10:38.5:1.5): 98.2 nm; Fluc activity in the liver, compared with CL4F6 (liver; [15]): higher Fluc activity; encapsulation rate (%), immediately after the preparation [4]: 98.1%; Quality 40° C. 1 M [5]: ∘; Quality 40° C. 1 W [5]: ∘; Particle size (nm), 40° C. 1 M [5]: 101.4 nm; encapsulation rate (%), 40° C. 1 M [5]: 98.1%; Particle size (nm), 40° C. 1 W [5]: 97.1 nm; encapsulation rate (%), 40° C. 1 W [5]: 98.0%
CC(CCC(C(=O)OCCCCCCC(O)(CCCCCCOC(=O)C(CCC(C)CC(C)(C)C)C(C)CC(C)(C)C)CCCCOC(=O)C1CCN(C)CC1)C(C)CC(C)(C)C)CC(C)(C)C (stereo not shown) [CL15G6] | 0.021 | 97.73 nm | 0.012 | 102.40 nm | 100.7% | 100.24% | 6.52E+06 Avg Radiance [p/s/cm2/sr] | 2.77E+06 Avg Radiance [p/s/cm2/sr] |  |  |  |  |  |  | PdI [7, 16]: 0.201; ζ-Average (nm) ([7]; NlucmRNA-loaded LNP, lipid:DSPC:cholesterol:PEG-DMG 60:10:40:1): 71.65 nm; ζ-Average (nm) ([7]; pFluc-loaded LNP, 50:10:40:1.5, N/P ratio 6): 86.39 nm; ζ-Average (nm) ([7]; pFluc-loaded LNP, 50:10:40:1.5, N/P ratio 9): 100.9 ± 10.7 nm; PdI ([7]; pFluc-loaded LNP, N/P ratio 6): 0.03; PdI ([7]; pFluc-loaded LNP, N/P ratio 9): 0.12 ± 0.08; ζ-potential (mV) [8, 16]: 0.419 mV; ζ-potential (mV) ([8]; pFluc-loaded LNP, N/P ratio 6): −5.84 mV; ζ-potential (mV) ([8]; pFluc-loaded LNP, N/P ratio 9): −1.9 ± 0.6 mV; pKa of lipid nanoparticle, compared [9]: lower pKa; % mRNA encapsulation [10, 16]: 91.8%; % pDNA encapsulation ([10]; N/P ratio 6): 94.7%; % pDNA encapsulation ([10]; N/P ratio 9): 91.1 ± 2.1%; in vivo F7 knockdown activity, compared (F7 [11]): equivalent in vivo F7 knockdown activity; F7 enzyme activity (Ratio using MC3 as 1) (F7 [3]): 2.69
CCCCCC/C=C\COC(=O)CCCCCCCC(CCCCCCCC(=O)OC/C=C\CCCCCC)OC(=O)CCCN(C)C [L319] |  |  |  |  |  |  |  |  |  |  |  |  |  | 0.01 mg siRNA/kg | 
CCCCC/C=C\C/C=C\CCCCCCCCC(CCCCCCCC/C=C\C/C=C\CCCCC)OC(=O)CCCN(C)C [MC3, D-Lin-MC3-DMA, reference compound] |  | 81.68 nm and 85.73 nm and 87.69 nm | 0.042 and 0.072 | 68.60 nm and 71.49 nm | 99.1% and 97.6% | 99.0% and 99.04% |  |  | 2.5% | 0 week | 0 weeks | 1 weeks | 0 weeks | 0.005 mg siRNA/kg | F7 enzyme activity (Ratio using MC3 as 1) (F7 [3]): 1
CCCCC/C=C\C/C=C\CCCCCCCCOC1(OCCCCCCCC/C=C\C/C=C\CCCCC)CCN(C)CC1 [YSK05] |  |  |  |  |  |  |  |  |  |  |  |  |  | 0.06 mg siRNA/kg | 
CCCCCCCCCCC(O)CN(CCCCC1NC(=O)C(CCCCN(CC(O)CCCCCCCCCC)CC(O)CCCCCCCCCC)NC1=O)CC(O)CCCCCCCCCC (stereo not shown) [cKK-E12] |  |  |  |  |  |  |  |  |  |  |  |  |  | 0.002 mg siRNA/kg | 

— US12458605B2, “Lipid nanoparticle” (National University Corporation Hokkaido University, priority 2020, dated 2025)
